Residue numbers refer to the chain shown, from its start. Each block holds one compound with its values, some of them ahead of it.
Legend:
[1] = target: T1, Glycine receptor subunit alpha-1 (Mus musculus, UniProt Q64018); assay: Positive allosteric modulation of mouse GlyRalpha1 expressed in HEK293 cells assessed as potentiation of glycine-induced calcium flux by calcium dye-5 based FLIPR assay; format: cell-based
T1 sequence (Q64018 whole entry): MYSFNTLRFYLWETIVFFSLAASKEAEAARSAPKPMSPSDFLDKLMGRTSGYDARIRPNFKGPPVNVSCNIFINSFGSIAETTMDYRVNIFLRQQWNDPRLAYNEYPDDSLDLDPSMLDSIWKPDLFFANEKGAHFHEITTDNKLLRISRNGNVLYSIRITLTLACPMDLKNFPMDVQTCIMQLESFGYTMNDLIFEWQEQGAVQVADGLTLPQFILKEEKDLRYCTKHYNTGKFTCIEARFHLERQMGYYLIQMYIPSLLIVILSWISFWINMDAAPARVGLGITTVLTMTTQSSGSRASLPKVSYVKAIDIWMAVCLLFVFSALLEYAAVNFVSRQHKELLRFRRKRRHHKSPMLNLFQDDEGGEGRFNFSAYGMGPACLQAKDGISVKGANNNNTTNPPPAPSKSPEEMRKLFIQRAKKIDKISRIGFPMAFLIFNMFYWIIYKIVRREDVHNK

[2] = target: T2, Glycine receptor subunit alpha-3 (Mus musculus) (UniProt Q91XP5); assay: Positive allosteric modulation of mouse GlyRalpha3 expressed in HEK293 cells assessed as potentiation of glycine-induced calcium flux by calcium dye-5 based FLIPR assay relative to glycine; format: cell-based
T2 sequence (whole entry): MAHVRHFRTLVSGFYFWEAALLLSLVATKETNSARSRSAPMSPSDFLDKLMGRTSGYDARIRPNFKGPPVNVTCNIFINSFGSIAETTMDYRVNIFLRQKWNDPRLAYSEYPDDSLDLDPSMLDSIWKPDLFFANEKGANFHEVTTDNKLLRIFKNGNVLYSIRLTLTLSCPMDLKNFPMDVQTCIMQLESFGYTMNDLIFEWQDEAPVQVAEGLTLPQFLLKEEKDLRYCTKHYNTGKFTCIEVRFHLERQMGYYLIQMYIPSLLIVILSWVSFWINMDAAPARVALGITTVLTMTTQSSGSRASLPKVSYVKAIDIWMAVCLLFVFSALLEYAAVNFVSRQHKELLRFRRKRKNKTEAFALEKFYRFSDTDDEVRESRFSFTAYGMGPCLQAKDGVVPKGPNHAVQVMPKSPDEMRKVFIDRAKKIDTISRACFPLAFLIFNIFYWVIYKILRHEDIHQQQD

[3] = target: Glycine receptor (alpha-1/beta) (Homo sapiens) (UniProt P23415+P48167); assay: Positive allosteric modulation of human GlyRalpha1beta expressed in HEK293 cells assessed as potentiation of glycine-induced calcium flux by calcium dye-5 based FLIPR assay relative to glycine; format: cell-based
[4] = target: T3, Glycine receptor subunit alpha-1 (Homo sapiens) (UniProt P23415); assay: Positive allosteric modulation of human GlyRalpha1 expressed in HEK293 cells assessed as potentiation of glycine-induced calcium flux by calcium dye-5 based FLIPR assay relative to glycine; format: cell-based
T3 sequence (whole entry): T1 sequence (Q64018 whole entry) with F9L, D362E, G365A, N396S, K457Q

[5] = target: T4, Glycine receptor subunit alpha-1 (Mus musculus) (UniProt Q64018); assay: Positive allosteric modulation of mouse GlyRalpha1 expressed in HEK293 cells assessed as potentiation of glycine-induced calcium flux by calcium dye-5 based FLIPR assay relative to glycine; format: cell-based
T4 sequence (whole entry): T1 sequence (Q64018 whole entry)

[6] = target: T5, Glycine receptor subunit alpha-3 (Homo sapiens) (UniProt O75311); assay: Positive allosteric modulation of human GlyRalpha3 expressed in HEK293 cells assessed as potentiation of glycine-induced calcium flux by calcium dye-5 based FLIPR assay relative to glycine; format: cell-based
T5 sequence (whole entry): T2 sequence (whole entry) with N32D, T372M, V398M, V399T, A406P

[7] = target: T6, Glycine receptor alpha-3/beta (Homo sapiens, UniProt O75311+P48167); assay: Positive allosteric modulation of human GlyRalpha3beta expressed in HEK293 cells assessed as potentiation of glycine-induced calcium flux by calcium dye-5 based FLIPR assay relative to glycine; format: cell-based
[8] = target: T7, Glycine receptor subunit alpha-3 (Mus musculus, UniProt Q91XP5); assay: Positive allosteric modulation of mouse GlyRalpha3 expressed in HEK293 cells assessed as potentiation of glycine-induced calcium flux by calcium dye-5 based FLIPR assay; format: cell-based
T7 sequence (Q91XP5 whole entry): T2 sequence (whole entry)

[9] = target: T3, Glycine receptor subunit alpha-1 (Homo sapiens); assay: Positive allosteric modulation of human GlyRalpha1 expressed in HEK293 cells assessed as potentiation of glycine-induced current flux at 100 uM by electrophysiology method relative to control; format: cell-based
[10] = target: T8, Glycine receptor subunit alpha-3 (Homo sapiens, UniProt O75311); assay: Positive allosteric modulation of human GlyRalpha3 expressed in HEK293 cells assessed as potentiation of glycine-induced current flux by electrophysiology method; format: cell-based
T8 sequence (O75311 whole entry): T2 sequence (whole entry) with N32D, T372M, V398M, V399T, A406P

[11] = target: T5, Glycine receptor subunit alpha-3 (Homo sapiens); assay: Positive allosteric modulation of human GlyRalpha3 expressed in HEK293 cells assessed as potentiation of glycine-induced current flux at 100 uM by electrophysiology method relative to control; format: cell-based
Mus musculus [12] = species on record: Mus musculus; assay: Analgesic activity in zymosan-A induced inflammation GlyR3 knock out mouse model assessed as reduction in mechanical hyperalgesia; format: functional; parameters: scale not given: the % may be the effect or the level left
[13] = target: T6, Glycine receptor alpha-3/beta; assay: Positive allosteric modulation of human GlyRalpha3beta expressed in CHO cells assessed as potentiation of EC5 to EC10 glycine-induced response at 10 uM by manual patch clamp assay; format: cell-based
[14] = target: T6, Glycine receptor alpha-3/beta; assay: Positive allosteric modulation of human GlyRalpha3beta expressed in CHO cells assessed as potentiation of EC20 glycine-induced ion flux at 10 uM by HT assay; format: cell-based
[15] = target: T2, Glycine receptor subunit alpha-3 (Mus musculus); assay: Allosteric modulation of GlyRalpha3 in VGAT::ChR2 BAC transgenic mouse lumbar spinal cord slices assessed as increase in decay time constants of light-evoked Gly-IPSC at 100 uM by Whole cell patch clamp method
[16] = target: T2, Glycine receptor subunit alpha-3 (Mus musculus); assay: Allosteric modulation of zymosan-A treated GlyRalpha3 in VGAT::ChR2 BAC transgenic mouse lumbar spinal cord slices assessed as increase in decay time constants of light-evoked Gly-IPSC at 100 uM by Whole cell patch clamp method
Mus musculus [17] = species on record: Mus musculus; assay: Analgesic activity in zymosan-A induced inflammation mouse model assessed as reduction in mechanical hyperalgesia; format: functional; parameters: scale not given: the % may be the effect or the level left
[18] = target: T6, Glycine receptor alpha-3/beta; assay: Positive allosteric modulation of human GlyRalpha3beta expressed in CHO cells assessed as potentiation of EC20 glycine-induced response at 5.9 uM by fluorescence based HTS assay; format: cell-based

EC50 [1]: 268 nM
Emax [2]: 63.5%
Emax [3]: 104%
Emax [4]: 102%
Emax [5]: 93.5%
Emax [6]: 100%
Emax [7]: 102%
EC50 [8]: 490 nM
Compound: CN1C(=O)[C@@H]2CN(S(=O)(=O)c3ccc4occc4c3)C[C@@H]2c2cnccc21

Activity [9]: 110%
EC50 [10]: 8500 nM
Activity [11]: 260%
Compound: CC1=C[C@@H](/C=C(\C)CCCC2=CCN(CC(=O)O)C2=O)[C@]2(OC(=O)C(C)(O)C2=O)[C@@H]2[C@@H](C)CC[C@@H]12 (stereo partly drawn)

Activity [13]: 309%
Activity [14]: 116%
Activity [15]: 54%
Activity [16]: 23.5%
Activity [18]: 134%
Compound: CC(C)(C)c1cccc(C(C)(C)C)c1O
Activity (Mus musculus [12]): 16%
Activity (Mus musculus [17]): 44.3%
